According to US20180203025A1, “HDL THERAPY MARKERS” (Cerenis Therapeutics Holding SA, priority 2014, published 2018):

What was measured:
[1] = test system: SREBP-2 mRNA in mouse macrophages (J774); assay: SREBP-2 gene expression (real-time PCR) in J774 macrophages; type: cell-based; conditions: Study P; 0.03 to 30 mM; 6 hours
Method: The mRNA regulation of those genes expressing ABCA1, ABCG1 and SR-BI is linked to nuclear proteins as LXR, SREBP1 and SREBP2. […] Gene expression was assayed using the protocols described in Sections 8.3.2 (RNA extraction); 8.3.4 (reverse transcription), and 8.3.5 (qPCR). SREBP-1, SREBP-2 and LXR gene expression levels were determined with Taqman probe (Mm01138344.m1, Mm01306292.m1, Mm00443451.m1 respectively) according to the manufacturer's protocol. The reference gene used is HPRT1 (Taqman probe: Mm00446968.m1).
This study used β-cyclodextrin to examine the effect of β-cyclodextrin on LXR, SREBP1 and SREBP2 mRNA expression in J774 macrophages. J774 were seeded on 6 well plates (300,000 cells/well). β-cyclodextrin (0.03, 0.1, 0.3, 1, 3, 10 and 30 mM) was added for 6 hours on the macrophages and the RNA were extracted with the RiboPure™ kit according to the manufacturer's protocol. Gene expression was assayed using the protocols described in Sections 8.3.2 (RNA extraction); 8.3.4 (reverse transcription), and 8.3.5 (qPCR). SREBP-1, SREBP-2 and LXR gene expression were determined with Taqman probe (Mm01138344.m1, Mm01306292.m1, Mm00443451.m1 respectively) according to the manufacturer's protocol. The reference gene used is HPRT1 (Taqman probe: Mm00446968.m1).

CHI SQUARE tolerability = type: in vivo, human; conditions: 3, 6, and 12 mg/kg
Text: 504 subjects presenting with acute chest pain or other angina equivalent symptoms, indicative of a diagnosis of ST segment elevation myocardial infarction, non-ST elevation myocardial infarction or unstable angina were enrolled. To be eligible, subjects must have angiographic evidence of coronary artery disease as defined by at least one lesion in any of the three major native coronary arteries that has >20% reduction in lumen diameter by angiographic visual estimation or prior history of percutaneous coronary intervention (“PCI”). The target vessel for PCI was not the target coronary artery for research IVUS, and any vessel with previous PCI could not be used as the target coronary artery.

[2] = Plasma cholesterol mobilization in apoE−/− mice; type: in vivo, mouse
Method: The formulation was injected in the retro-orbital vein (50 μL/mouse) of mice anaesthetized with isoflurane, once every 2 days for 8 injections. The dose administered was based on the mean of mice bodyweight in each cage. The compounds were injected at 10 AM every day. For blood sampling, mice fasted overnight were sampled once at the indicated dose: (1) at predose (at 9 AM) by retro-orbital withdrawal: 24 hours before the first injection/day of surgery; (2) at postdose (at 9 AM) by retro-orbital withdrawal: 24 hours after the last injection; and (3) at t=0 (9 AM) and the indicated time points after the 5th injection by caudal withdrawal. Immediately after collection, blood samples were kept at ca. +4° C. to avoid alteration of the blood sample. Blood specimens were centrifuged (800×g for 10 minutes at +4° C.) and plasma was saved for future analysis.
(§1) Add in each tube cholesterol standards (2 g/L): 0/0.625/1.25/1.875/2.5/3.75/5 μl. Centrifuge plasma samples at 12,000×g for 1 minute. Add 0.5 ml of the reconstituted buffer to each tube (standard and samples), vortex and incubate 5 minutes at 37° C. Transfer 150 μl from each tube to 2 different wells in a 96 well plate. Read absorbance at 500 nm.
as §1, with “of” for “of the”
This study examined the consequences of CER-001 administration on the lipoprotein profile in apoE^−/− mice fed with high fat diet. Blood was collected and analyzed at different time points after the 5th infusion. Plasma pre-dose (before the first injection) and plasma post-dose (24h after the last injection) were also compared. Plasma was analyzed for total and unesterified cholesterol and human ApoA-I contents.
Total and unesterified cholesterol concentrations were determined according to the procotols of Sections 9.2.5 and 9.2.6, respectively. Cholesterol ester concentrations are determined after subtracted unesterified cholesterol from total cholesterol. The mobilization of cholesterol was determined on 12 mice per group after the 5th administration (1 hour before injection; 1 h, 2h, 4h and 24h after injection). The animals were fasted overnight.

[3] = test system: TAV and PAV of the target coronary artery; assay: CHI SQUARE IVUS post-hoc analysis by SAHMRI (second approach); type: in vivo, human
Method: A post-hoc analysis of the IVUS data was performed by the South Australian Health & Medical Research Institute (SAHMRI).
In this case there were similar frame-counts between baseline and follow-up. The number of frames selected were normally distributed (FIG. 3).

[4] = Cholesterol content in mouse feces; type: in vivo
Method: The left and right carotids, the liver, the spleen and the aortas connected to the heart were removed and stored at −80° C. The liver was collected in four different aliquots. The remaining biological specimens were discarded after the organ collection. For feces collection, the day of the last injection for each group, the cage was changed with a new litter and feces were collected for 24 hours (day of sacrifice).
Feces were lipid extracted and analyzed by HPLC for their cholesterol content. Feces (200 mg) were solubilized in methanol:water (50:50) solution and mixed for 1 minute with Turrax®. The solution was frozen and lyophilized overnight. The following day, 4 mL of chloroform/methanol (2:1) was added and the solution was mixed for 24 hours at 4° C. To this was added water (1.33 mL), and the solution was then mixed and centrifuged for three minutes at 3700×g. The organic phase was saved and dried. The pellet was solubilized in absolute ethanol (2 mL), and filtered on cartridge AC 0.2 μm. The cholesterol concentration in the sample was analyzed according to the method of Section 9.2.7.

[5] = cited from earlier work
[6] = baseline PAV equal to or greater than 30, mITT, 3 mg/kg (n = 58)
[7] = baseline PAV equal to or greater than 30, mITT, 6 mg/kg (n = 78)
[8] = baseline PAV equal to or greater than 30, mITT, 12 mg/kg (n = 66)

For OC[C@H]1O[C@@H]2O[C@H]3[C@H](O)[C@@H](O)[C@@H](O[C@H]4[C@H](O)[C@@H](O)[C@@H](O[C@H]5[C@H](O)[C@@H](O)[C@@H](O[C@H]6[C@H](O)[C@@H](O)[C@@H](O[C@H]7[C@H](O)[C@@H](O)[C@@H](O[C@H]8[C@H](O)[C@@H](O)[C@@H](O[C@H]1[C@H](O)[C@H]2O)O[C@@H]8CO)O[C@@H]7CO)O[C@@H]6CO)O[C@@H]5CO)O[C@@H]4CO)O[C@@H]3CO [β-cyclodextrin, reference compound], the “SREBP-2 mRNA” value [1] was “increased for the lowest dose of β-cyclodextrin and reached a plateau”.
In the case of “CER-001: engineered recombinant human apolipoprotein A-I HDL with sphingomyelin and DPPG; protein-to-phospholipid ratio 1:2.7, 97% Sph and 3% DPPG”, the tolerability (CHI SQUARE tolerability) is reported as “well-tolerated overall”, the “toxicities in laboratory parameters” value (CHI SQUARE tolerability) is reported as “no apparent dose-related toxicities in laboratory parameters” and the “plasma unesterified cholesterol concentration” value ([2]; 50 mg/kg, 2 and 4 hours after infusion) is reported as “seemed to increase the plasma unesterified cholesterol concentration”. The “post-dose total and unesterified cholesterol concentrations compared to HDL3 treated mice” value ([2]; 24h after the last injection) was “two times higher”, the “doses increasing the cholesterol concentration in plasma compared to placebo” value ([2]; after 8 injections) was “above 10 mg/kg” and the “mobilization of unesterified cholesterol” value ([2]; after the 5th infusion) was “No significant changes”. The “total plasma cholesterol mobilization” value ([2]; after the 5th infusion) was “No significant changes”, the “change in TAV and PAV versus placebo” value ([3]; baseline PAV equal to or greater than 30, mITT, 3 mg/kg) was “obtained statistical significance versus placebo” and the “PAV LS mean change (ANCOVA)” value [3, 6] was −0.963. The “TAV LS mean change (ANCOVA)” value [3, 6] was −6.258, the “PAV LS mean change (ANCOVA)” value [3, 7] was −0.619 and the “TAV LS mean change (ANCOVA)” value [3, 7] was −3.429. For the same compound, the “PAV LS mean change (ANCOVA)” value [3, 8] was “+0.177”, the “TAV LS mean change (ANCOVA)” value [3, 8] was −2.726 and the “shape of dose-effect curve” value ([3]; humans, 3, 6, 12 mg/kg) was “inverted U-shaped dose-effect curve”. For the same compound, the “reduction in PAV and TAV versus baseline” value ([3]; mITT population) was “statistically significant and comparable magnitude of reduction in PAV and TAV versus baseline”, the “TAV and PAV versus placebo” value ([3]; mPP population, 3 mg/kg) was “did achieve nominal statistical significance versus placebo” and the feces cholesterol content ([4]; feces collected 24 hours after last injection) was “dose-dependent increase”. For the same compound, the “concentration of maximum cholesterol excretion” value ([4]; mouse, in vivo) was 10 mg/kg, the cholesterol mobilization ([5]; healthy volunteers, single IV doses 0.25 to 45 mg/kg) was “increased cholesterol mobilization with increasing doses” and the “dose level above which a transient increase of triglycerides was observed” value ([5]; human, in vivo, iv) was “greater than 15 mg/kg”.
